# Measurements from publication PMC12504763, “Antiproliferation, 3D-multicellular spheroid and VEGFR-2 inhibitory properties of spiroindolin-2-ones with phosphonate function” (Scientific Reports, 2025).
# “And” between values parts separate entries of the source, which are not always exact repeats. Identical values can stand only once. Like-named read-outs stand apart in the source and are kept apart here.
# Legend:
# [1] = system: MCF7 (breast) cancer cell line; assay: 2D-monolayer antiproliferation (MTT) against MCF7; assay type: cell-based, human; details: for IC50: Homo sapiens, MTT, 72 h incubation, MCF7 breast, read-out: IC50, μM ± SEM MCF7; for SI (selectivity index) MCF7: IC50 of RPE1 normal cell/IC50 of MCF7
# [2] = system: TNF-α; assay: TNF-α inhibitory properties (ELISA), MCF7 cell lysate; assay type: cell-based, human; details: at 10 μM; for TNF-α pg/mL (± SEM) MCF7: control 83.26 ± 1.1
# [3] = system: PaCa2 (pancreatic) cancer cell line; assay: 2D-monolayer antiproliferation (MTT) against PaCa2; assay type: cell-based, human; details: for 1/(observed property): 1/observed IC50 (μM), PaCa2; for IC50: Homo sapiens, PaCa-2, MTT, 72 h incubation, PaCa2 pancreatic, read-out: IC50, μM ± SEM PaCa2; for SI (selectivity index) PaCa2: IC50 of RPE1 normal cell/IC50 of PaCa2
# [4] = biological target: T1, VEGFR-2 (Homo sapiens, UniProt P35968); assay: cell-based; assay type: cell-based; details: for inhibition at 10 µM: HCT-116, HCT116; for VEGFR-2 pg/mL ± SEM HCT116: at 10 μM, control 317.80 ± 3.5
# T1 construct: endogenous in cells; host or cells: HCT116, PaCa2, MCF7 (human cancer cell lines, ATCC origin)
# T1 sequence (P35968 20-1356): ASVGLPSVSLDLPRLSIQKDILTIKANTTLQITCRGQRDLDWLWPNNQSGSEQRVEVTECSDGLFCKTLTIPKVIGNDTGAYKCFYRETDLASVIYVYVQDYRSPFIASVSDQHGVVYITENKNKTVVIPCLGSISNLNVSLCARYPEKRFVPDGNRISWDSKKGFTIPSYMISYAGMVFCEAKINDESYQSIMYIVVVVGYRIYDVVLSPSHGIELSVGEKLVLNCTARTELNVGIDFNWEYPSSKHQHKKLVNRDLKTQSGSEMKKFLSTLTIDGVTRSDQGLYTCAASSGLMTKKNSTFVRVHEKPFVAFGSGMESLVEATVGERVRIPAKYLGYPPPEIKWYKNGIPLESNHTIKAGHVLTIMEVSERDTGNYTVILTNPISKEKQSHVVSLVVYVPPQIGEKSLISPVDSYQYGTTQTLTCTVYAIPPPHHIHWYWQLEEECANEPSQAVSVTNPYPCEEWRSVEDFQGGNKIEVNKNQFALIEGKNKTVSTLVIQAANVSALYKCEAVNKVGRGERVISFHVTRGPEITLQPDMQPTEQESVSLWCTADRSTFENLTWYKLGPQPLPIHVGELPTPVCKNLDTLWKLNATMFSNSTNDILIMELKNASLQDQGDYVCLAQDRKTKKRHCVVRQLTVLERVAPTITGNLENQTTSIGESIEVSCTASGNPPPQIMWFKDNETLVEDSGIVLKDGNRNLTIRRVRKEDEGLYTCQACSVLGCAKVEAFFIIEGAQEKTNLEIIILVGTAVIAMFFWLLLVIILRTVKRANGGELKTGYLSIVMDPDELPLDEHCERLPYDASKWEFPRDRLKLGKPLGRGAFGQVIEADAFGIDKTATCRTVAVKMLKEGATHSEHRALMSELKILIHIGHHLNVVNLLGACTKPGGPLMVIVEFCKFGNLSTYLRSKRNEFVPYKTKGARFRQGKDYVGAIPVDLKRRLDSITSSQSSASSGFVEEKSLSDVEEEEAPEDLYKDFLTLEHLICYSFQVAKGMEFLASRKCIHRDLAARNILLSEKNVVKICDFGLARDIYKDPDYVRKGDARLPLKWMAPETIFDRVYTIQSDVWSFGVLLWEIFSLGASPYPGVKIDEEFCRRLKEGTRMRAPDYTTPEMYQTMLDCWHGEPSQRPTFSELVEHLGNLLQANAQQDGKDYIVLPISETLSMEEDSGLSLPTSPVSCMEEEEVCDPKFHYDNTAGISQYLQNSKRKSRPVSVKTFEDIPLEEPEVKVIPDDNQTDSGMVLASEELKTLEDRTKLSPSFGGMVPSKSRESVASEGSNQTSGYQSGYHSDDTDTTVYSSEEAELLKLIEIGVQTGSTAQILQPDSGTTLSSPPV
# [5] = system: TNF-α; assay: TNF-α inhibitory properties (ELISA), PaCa2 cell lysate; assay type: cell-based, human; details: at 10 μM; for TNF-α pg/mL (± SEM) PaCa2: control 111.8 ± 2.0
# [6] = system: HCT116 (colon) cancer cell line; assay: 2D-monolayer antiproliferation (MTT) against HCT116; assay type: cell-based, human; details: for IC50: Homo sapiens, HCT-116; for SI (selectivity index) HCT116: IC50 of RPE1 normal cell/IC50 of HCT116
# [7] = system: HCT116 3D-spheroid; details: HCT116 3D-spheroid at 50 μM, relative to control
# [8] = biological target: T2, COX-2 (Homo sapiens, UniProt P35354); assay: biochemical; details: for inhibition at 10 µM: 3 replicates, read-out: % Inhibition of COX-2 ± SEM
# T2 construct: purchased BioVision incorporated USA K548–100
# T2 sequence (P35354 18-604): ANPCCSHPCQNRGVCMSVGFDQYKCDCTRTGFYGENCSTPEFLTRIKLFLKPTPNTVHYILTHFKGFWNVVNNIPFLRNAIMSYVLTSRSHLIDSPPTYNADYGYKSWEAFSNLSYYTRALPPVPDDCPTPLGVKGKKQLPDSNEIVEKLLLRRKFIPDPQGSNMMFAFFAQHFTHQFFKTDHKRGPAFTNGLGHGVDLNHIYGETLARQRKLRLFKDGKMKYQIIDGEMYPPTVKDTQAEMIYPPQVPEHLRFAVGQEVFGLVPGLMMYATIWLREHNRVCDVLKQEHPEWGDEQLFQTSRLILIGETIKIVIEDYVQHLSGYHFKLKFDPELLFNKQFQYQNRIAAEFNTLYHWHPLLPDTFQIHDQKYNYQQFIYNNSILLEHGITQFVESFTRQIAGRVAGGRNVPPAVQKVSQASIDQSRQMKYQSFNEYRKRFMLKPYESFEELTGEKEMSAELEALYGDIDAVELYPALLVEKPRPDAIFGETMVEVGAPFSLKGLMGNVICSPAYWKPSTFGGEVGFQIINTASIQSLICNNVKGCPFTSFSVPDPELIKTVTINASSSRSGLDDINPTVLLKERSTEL
# [9] = system: RPE1 (normal human immortalized retinal pigment epithelial cell line); assay: cells; assay type: cell-based; details: Homo sapiens, RPE-1; MTT, normal RPE1 cell; read-out: IC50, μM ± SEM RPE1
# [10] = system: A549 (lung) cancer cell line; assay: 2D-monolayer antiproliferation (MTT) against A549; assay type: cell-based, human; details: for IC50: Homo sapiens, MTT, 72 h incubation, A549 lung, read-out: IC50, μM ± SEM A549; for SI (selectivity index) A549: IC50 of RPE1 normal cell/IC50 of A549
# [11] = biological target: T1, VEGFR-2; assay: cell-based; assay type: cell-based; details: for inhibition at 10 µM: PaCa-2, PaCa2; for VEGFR-2 pg/mL ± SEM PaCa2: at 10 μM, control 326.80 ± 1.9
# [12] = system: TNF-α; assay: TNF-α inhibitory properties (ELISA), HCT116 cell lysate; assay type: cell-based, human; details: at 10 μM; for TNF-α pg/mL (± SEM) HCT116: control 95.74 ± 0.5
# [13] = biological target: T1, VEGFR-2; assay: cell-based; assay type: cell-based; details: for inhibition at 10 µM: MCF7; for VEGFR-2 pg/mL ± SEM MCF7: at 10 μM, control 258.70 ± 2.3
# [14] = biological target: T3, COX-1 (Ovis aries, UniProt P05979); assay: biochemical; details: 3 replicates, read-out: % Inhibition of COX-1 ± SEM
# T3 construct: purchased BioVision incorporated USA K548–100
# T3 sequence (P05979 25-600): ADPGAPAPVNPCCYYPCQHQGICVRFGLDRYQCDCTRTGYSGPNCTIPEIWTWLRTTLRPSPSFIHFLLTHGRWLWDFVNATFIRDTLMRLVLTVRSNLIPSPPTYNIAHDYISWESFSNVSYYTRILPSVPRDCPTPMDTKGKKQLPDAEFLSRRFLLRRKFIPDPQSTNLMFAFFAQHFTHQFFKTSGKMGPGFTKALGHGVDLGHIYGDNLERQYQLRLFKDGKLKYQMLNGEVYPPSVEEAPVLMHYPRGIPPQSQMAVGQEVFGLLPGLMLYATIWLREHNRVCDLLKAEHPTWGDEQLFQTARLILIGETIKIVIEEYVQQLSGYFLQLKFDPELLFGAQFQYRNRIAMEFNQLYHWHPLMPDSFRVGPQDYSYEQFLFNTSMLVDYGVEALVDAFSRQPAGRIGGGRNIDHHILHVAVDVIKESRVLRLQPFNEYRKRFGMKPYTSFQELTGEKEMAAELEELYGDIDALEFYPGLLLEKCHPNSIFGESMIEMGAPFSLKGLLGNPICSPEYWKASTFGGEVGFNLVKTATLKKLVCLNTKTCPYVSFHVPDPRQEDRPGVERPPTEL
# [15] = MTT, 72 h incubation, HCT116 colon, read-out: IC50, μM ± SEM HCT116
# [16] = log of observed IC50 (μM), HCT116, read-out: Log(observed property) (converted)
Structure (SMILES),IC50 [1] [µM],SI (selectivity index) MCF7 [1],TNF-α % inhibition MCF7 [2] [%],TNF-α pg/mL (± SEM) MCF7 [2] [pg/mL],1/(observed property) [3],IC50 [3] [µM],SI (selectivity index) PaCa2 [3],inhibition at 10 µM [4] [%],VEGFR-2 pg/mL ± SEM HCT116 [4] [pg/mL],TNF-α pg/mL (± SEM) PaCa2 [5] [pg/mL],"IC50 [6, 15] [µM]","IC50 [6, 16] [µM]",SI (selectivity index) HCT116 [6],"%CT (± SEM), percentage cytotoxicity [7]",inhibition at 10 µM [8] [%],IC50 [9] [µM],IC50 [10] [µM],SI (selectivity index) A549 [10],inhibition at 10 µM [11] [%],VEGFR-2 pg/mL ± SEM PaCa2 [11] [pg/mL],further results
"CCOP(=O)(OCC)N1C/C(=C\c2ccccc2)C(=O)C2(C1)C(c1ccccc1)CN(C)C21C(=O)Nc2ccc(C)cc21 (stereo not drawn) [Compound 17d, Diethyl (E)-(5′′-benzylidene-1′,5-dimethyl-2,4′′-dioxo-4′-phenyldispiro[indoline-3,2′-pyrrolidine-3′,3′′-piperidin]-1′′-yl)phosphonate]",5.78 ± 0.13,3.1,0.1,83.2 ± 4.5,0.06423,15.6 ± 0.329,1.2,72.5,87.40 ± 1.9,103.7 ± 4.2,9.278 ± 0.084,9.28,1.9,64.1% and 64.1 ± 7.0%,56.4 ± 1.9,17.9 ± 0.945,14.6 ± 0.27,1.2,83.7,53.42 ± 0.7,"TNF-α % inhibition PaCa2 [5]: 7.2%; SI (selectivity index, COX-2/COX-1) ([8]; at 10 μM): 0.82; TNF-α % inhibition HCT116 [12]: 1.0%; TNF-α pg/mL (± SEM) HCT116 [12]: 94.80 ± 2.5 pg/mL; inhibition at 10 µM [13]: 71.9%; VEGFR-2 pg/mL ± SEM MCF7 [13]: 72.80 ± 1.2 pg/mL; inhibition at 10 µM [14]: 51.8 ± 2.2%"
"CCOP(=O)(OCC)N1C/C(=C\c2ccc(Cl)cc2)C(=O)C2(C1)C(c1ccc(Cl)cc1)CN(C)C21C(=O)Nc2ccc(C)cc21 (stereo not drawn) [Compound 17k, Diethyl (E)-(5′′-(4-chlorobenzylidene)-4′-(4-chlorophenyl)-1′,5-dimethyl-2,4′′-dioxodispiro[indoline-3,2′-pyrrolidine-3′,3′′-piperidin]-1′′-yl)phosphonate]",4.98 ± 0.095,1.6,72.6,22.85 ± 1.8,0.1502,6.66 ± 0.095,1.2,78.7,67.80 ± 1.3,24.3 ± 1.4,3.281 ± 0.022,3.28,2.5,53.1% and 53.1 ± 2.2%,55 ± 1.6,8.15 ± 0.507,6.47 ± 0.385,1.3,76.6,76.40 ± 0.9,TNF-α pg/mL (± SEM) HCT116 [12]: 26.48 ± 1.5 pg/mL; inhibition at 10 µM [13]: 66.6%; VEGFR-2 pg/mL ± SEM MCF7 [13]: 86.40 ± 0.5 pg/mL; inhibition at 10 µM [14]: 57.7 ± 1%
